Test results: patent US20050158709A1, “Methods for determinging the influence of protein binding on antiretroviral activity” (priority 2002, published 2005)
pEC50: −log10 of the molar value. Read-outs that look alike come from different tables or passages of the source.

Experiments:
R13031 = experiment: EC50 against viral strain R13031; format: cell-based, HIV; conditions: Human immunodeficiency virus 1
Description: (§1) As an example, protease inhibitors have clinically relevant concentrations in a range of around 500 nM and more, sub-therapeutic concentrations in the range of around 50 nM to around 500 nM, and in vitro testing concentrations in the range of less than around or 50 nM.

R13025 = experiment: EC50 against viral strain R13025; format: cell-based, HIV; conditions: Human immunodeficiency virus 1
Description: as §1

LAI = experiment: EC50 against viral strain LAI; format: cell-based, HIV; conditions: Human immunodeficiency virus 1
Description: as §1

R13036 = experiment: EC50 against viral strain R13036; format: cell-based, HIV; conditions: Human immunodeficiency virus 1
Description: as §1

[1] = test system: various HIV-1 strains (resistant strains); format: cell-based; conditions: for EC50 ratio (human plasma or serum protein vs 10% FCS), concentration range 50 nM-5 nM: EC50 50 nM-5 nM (in vitro testing concentrations, wild type HIV); for EC50 ratio (human plasma or serum protein vs 10% FCS), concentration range 500 nM-50 nM: strains with EC50 500 nM-50 nM (sub-therapeutic concentrations)
Description: (§2) The influence of AAG, Human Serum Albumin (HSA) or Human Serum (HS) on the activity of antiretrovirals was measured in a cell-based antiviral assay. A phenotypic assay was performed to measure the ability of resistant virus strains to grow in the presence of each drug of interest, and in the presence of various combinations of plasma or serum proteins at different concentrations: • 50% heat-inactivated human serum (HS) with or without 10% fetal calf serum (FCS) • 1 mg/mL AAG and 10% FCS • 45 mg/mL human serum albumin (HSA) and 10% FCS
(§3) Anti-HIV activity was determined in HIV-or mock-infected MT4 cells by the MTT method as described by Pauwels et al (1988), J.Virol.Meth.20:[…], and Hertogs et al (1998), Antimicrob.Ag.Chemother.42:269-27. Briefly, recombinant or non-recombinant virus, with a specific resistance profile, were grown in cell culture to obtain viral stocks of known concentration. Susceptibility testing of the viral stocks in the presence of various antiviral agents and in the presence of plasma or serum proteins, and a detection system based on MTT determined to which extent agents inhibited replication of the virus strains.
(§4) Virus strains used for these studies had different origins: • HIV strains obtained by in vitro selection in the presence of various antivirals • Recombinant clinical isolates constructed according to the Antivirogram™ method as described by Hertogs et al (1998).
Virus strains with various levels of resistance against each of the PIs were used in similar experiments with AAG.

R13028 = experiment: EC50 against viral strain R13028; format: cell-based, HIV; conditions: Human immunodeficiency virus 1
Description: as §1

R13127 = experiment: EC50 against viral strain R13127; format: cell-based, HIV; conditions: Human immunodeficiency virus 1
Description: as §1

wild type HIV-1 (LAI) = experiment: Cell-based antiviral assay (MT4 cells, MTT method) in the presence of human plasma or serum proteins, wild type HIV-1; conditions: for ratio between EC50 in presence of indicated protein and EC50 in presence of 10% FCS: HS 50% / ratio between EC50 in presence of indicated protein and EC50 in presence of 10% FCS: AAG 1 mg/mL / ratio between EC50 in presence of indicated protein and EC50 in presence of 10% FCS: FCS (10%) / ratio between EC50 in presence of indicated protein and EC50 in presence of 10% FCS: HSA 45 mg/mL: wild type HIV-1 (LAI), median of at least two determinations; for ratio between EC50 in presence of indicated protein and EC50 in presence of 10% FCS: HS 50%: 50% human serum; for ratio between EC50 in presence of indicated protein and EC50 in presence of 10% FCS: AAG 1 mg/mL: AAG 1 mg/mL and 10% FCS; for ratio between EC50 in presence of indicated protein and EC50 in presence of 10% FCS: FCS (10%): FCS 10% (reference); for ratio between EC50 in presence of indicated protein and EC50 in presence of 10% FCS: HSA 45 mg/mL: HSA 45 mg/mL and 10% FCS
Description: as §2, §3, §4

T13127 = experiment: EC50 against viral strain T13127; format: cell-based, HIV; conditions: Human immunodeficiency virus 1
Description: as §1

R13020 = experiment: EC50 against viral strain R13020; format: cell-based, HIV; conditions: Human immunodeficiency virus 1
Description: as §1

T13025 = experiment: EC50 against viral strain T13025; format: cell-based, HIV; conditions: Human immunodeficiency virus 1
Description: as §1

R13273 = experiment: EC50 against viral strain R13273; format: cell-based, HIV; conditions: Human immunodeficiency virus 1
Description: as §1

R13485 = experiment: EC50 against viral strain R13485; format: cell-based, HIV; conditions: Human immunodeficiency virus 1
Description: as §1

HIV [2] = conditions: in vitro; increasing AAG; cited from earlier work
HIV [3] = conditions: extensive protein binding prevented intracellular diffusion; cited from earlier work
HIV [4] = conditions: cited from earlier work
[5] = protein not given, AAG, median of at least two determinations
[6] = strains with EC50 5 μM-500 nM (clinically relevant concentrations), protein not given, AAG, median of at least two determinations

Row | Structure (SMILES) | pEC50 (R13025) | pEC50 (LAI) | EC50 ratio (human plasma or serum protein vs 10% FCS), concentration range 50 nM-5 nM [1, 5] | EC50 ratio (human plasma or serum protein vs 10% FCS), concentration range 500 nM-50 nM [1, 5] | ratio between EC50 in presence of indicated protein and EC50 in presence of 10% FCS: HS 50% (wild type HIV-1 (LAI)) | ratio between EC50 in presence of indicated protein and EC50 in presence of 10% FCS: AAG 1 mg/mL (wild type HIV-1 (LAI)) | ratio between EC50 in presence of indicated protein and EC50 in presence of 10% FCS: FCS (10%) (wild type HIV-1 (LAI)) | ratio between EC50 in presence of indicated protein and EC50 in presence of 10% FCS: HSA 45 mg/mL (wild type HIV-1 (LAI)) | EC50 ratio (human plasma or serum protein vs 10% FCS), concentration range 5 μM-500 nM [1] | further results
1 | CC(C)c1nc(CN(C)C(=O)N[C@H](C(=O)N[C@@H](Cc2ccccc2)C[C@H](O)[C@H](Cc2ccccc2)NC(=O)OCc2cncs2)C(C)C)cs1 [Ritonavir, ritonavir] | ~5.70 | ~7.44 | – | – | – | – | – | – | – | pEC50 (R13031): ~6.39
2 | Cc1c(O)cccc1C(=O)N[C@@H](CSc1ccccc1)[C@H](O)CN1C[C@H]2CCCC[C@H]2C[C@H]1C(=O)NC(C)(C)C [Nelfinavir, nelfinavir] | – | ~7.49 | 11 | 9 | 25 | 31 | 1 | 7 | – | pEC50 (R13036): ~6.00; EC50 ratio (human plasma or serum protein vs 10% FCS), concentration range 5 μM-500 nM [1, 6]: 5; pEC50 (R13028): ~6.60; pEC50 (R13127): ~5.10
3 | CC(C)CN(C[C@@H](O)[C@H](Cc1ccccc1)NC(=O)OC1CO[C@H]2OCC[C@@H]12)S(=O)(=O)c1ccc(N)cc1 (some centres unmarked) [compound 1] | – | – | 24 | 12 | – | – | – | – | 7 | EC50 ratio (human plasma or serum protein vs 10% FCS), concentration range <5 nM [1]: 85; EC50 ratio (human plasma or serum protein vs 10% FCS), concentration range >5 μM [1]: 4
4 | CC(C)(C)NC(=O)[C@@H]1CN(Cc2cccnc2)CCN1C[C@@H](O)C[C@@H](Cc1ccccc1)C(=O)N[C@H]1c2ccccc2C[C@H]1O [Indinavir, indinavir] | ~5.70 | ~7.44 | – | – | – | – | – | – | – | pEC50 (R13028): ~6.58; effect of AAG and HS on potency against wild-type HIV-1 (wild type HIV-1 (LAI); wild-type HIV-1, presence of AAG and HS): unaffected
5 | CC(C)(C)NC(=O)[C@@H]1C[C@@H]2CCCC[C@@H]2CN1C[C@@H](O)[C@H](Cc1ccccc1)NC(=O)[C@H](CC(N)=O)NC(=O)c1ccc2ccccc2n1 [Saquinavir, saquinavir] | – | – | 5 | 4 | 5 | 5 | 1 | 3 | 3 | pEC50 (T13127): ~6.15; EC50 ratio (human plasma or serum protein vs 10% FCS), concentration range <5 nM [1]: 19; EC50 ratio (human plasma or serum protein vs 10% FCS), concentration range >5 μM [1]: 2; influence of AAG on the anti-HIV activity ([1]; different HIV-1 strains, AAG 1 mg/mL vs 10% FCS, FIG. 1): decreases with increasing inhibitor concentrations; pEC50 (R13020): ~5.15; pEC50 (T13025): ~6.78
6 | CC(C)CN(C[C@@H](O)[C@H](Cc1ccccc1)NC(=O)O[C@H]1CCOC1)S(=O)(=O)c1ccc(N)cc1 [amprenavir] | ~6.39 | ~7.38 | 38 | 14 | 12 | 25 | 1 | 2 | – | EC50 ratio (human plasma or serum protein vs 10% FCS), concentration range 5 μM-500 nM [1, 6]: 5; pEC50 (R13127): ~5.70
7 | Cc1cccc(C)c1OCC(=O)N[C@@H](Cc1ccccc1)[C@@H](O)C[C@H](Cc1ccccc1)NC(=O)[C@H](C(C)C)N1CCCNC1=O [Lopinavir, lopinavir] | – | ~8.05 | 64 | 20 | 5 | 26 | 1 | 5 | 4 | pEC50 (R13273): ~5.70; pEC50 (R13485): ~6.44
8 | CC(C)[C@H](NC(=O)N(C)Cc1ccccn1)C(=O)N[C@@H](Cc1ccccc1)[C@H](O)[C@H](O)[C@H](Cc1ccccc1)NC(=O)[C@@H](NC(=O)N(C)Cc1ccccn1)C(C)C [A77003] | – | – | – | – | – | – | – | – | – | antiviral efficacy as the concentration of α1-acid glycoprotein (AAG) was increased (HIV [2]): decreased
9 | CC(C)CN(C[C@@H](O)[C@H](Cc1ccccc1)NC(=O)[C@H](CC(N)=O)NC(=O)c1ccc2ccccc2n1)C(=O)NC(C)(C)C [SC-52151, telinavir] | – | – | – | – | – | – | – | – | – | activity in vivo (clinical efficacy) (HIV [3]): insufficient; antiretroviral activity in vitro (HIV [4]): potent
